Measurements reported in patent US20250073255A1, “USE OF FA-TYPE LIPID COMPOUNDS IN PREPARATION OF NUCLEIC ACID DELIVERY REAGENT AND RELATED PRODUCT” (BEIJING BAISHIKANG PHARMACEUTICAL TECHNOLOGY (BSJPHARMA) …, priority 2021, published 2025).

Tested on: C57BL/6 male mice
Experiment: In vivo delivery study of lipid nucleic acid mixture (oral gavage, RT-qPCR of PGY-sRNA-26 in tissues)
Design: species or system mouse
Settings: for oral delivery of single-stranded sRNA nucleic acids into mouse heart tissue: vs free uptake group; for overall delivery efficacy: delivering nucleic acids into each tissue and blood tested: 100 μg lipid:10 nmol PGY-sRNA-26, all tissues and blood tested; for oral delivery of single-stranded sRNA nucleic acids into mouse intestinal tissue: intestine
In short: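 Stem-loop RT and SYBR qPCR, normalized to U6, measured PGY-sRNA-26 in blood and organs 12 h after gavage. Dosing was 10 nmol sRNA with 100 μg lipid, pre-mixed and heated 15 min at 90 °C, in 12-h-fasted mice, against saline and free-sRNA groups.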

[1] = 100 μg lipid:10 nmol PGY-sRNA-26, sampled after 12 hours

| Structure (SMILES) | oral delivery of single-stranded sRNA nucleic acids into mouse brain tissue [1] | oral delivery of single-stranded sRNA nucleic acids into mouse heart tissue [1] | oral delivery of single-stranded sRNA nucleic acids into mouse liver tissue [1] | oral delivery of single-stranded sRNA nucleic acids into mouse lung tissue [1] | oral delivery of single-stranded sRNA nucleic acids into mouse spleen tissue [1] | overall delivery efficacy: delivering nucleic acids into each tissue and blood tested | oral delivery of single-stranded sRNA nucleic acids into mouse blood [1] | oral delivery of single-stranded sRNA nucleic acids into mouse femur [1] | oral delivery of single-stranded sRNA nucleic acids into mouse intestinal tissue [1] | oral delivery of single-stranded sRNA nucleic acids into mouse kidney tissue [1] | oral delivery of single-stranded sRNA nucleic acids into mouse stomach tissue [1] | oral delivery of single-stranded sRNA nucleic acids into mouse pancreatic tissue (100 μg lipid:10 nmol PGY-sRNA-26, sampled after 12 hours, pancreas) |
| --- | --- | --- | --- | --- | --- | --- | --- | --- | --- | --- | --- | --- |
| CCCCC/C=C\C/C=C\C/C=C\C/C=C\CCCCCC(=O)O [Lipid 520, (7Z,10Z,13Z,16Z)-docosa-7,10,13,16-tetraenoic acid] | can effectively orally deliver | can effectively orally deliver | can effectively orally deliver | can effectively orally deliver | can effectively orally deliver | – | – | – | – | – | – | – |
| NC(CCCC(=O)O)C(=O)O (stereo not shown) [Lipid 530, 2-aminohexanedioic acid] | can effectively orally deliver | can effectively orally deliver | can effectively orally deliver | can effectively orally deliver | can effectively orally deliver | best delivery efficacy | can effectively orally deliver | can effectively orally deliver | can effectively orally deliver | can effectively orally deliver | can effectively orally deliver | – |
| CCCCC(N)=O [Lipid 610] | – | – | – | can effectively orally deliver | can effectively orally deliver | – | – | can effectively orally deliver | – | can effectively orally deliver | can effectively orally deliver | – |
| C/C(=C\C(=O)O)C(=O)O [Lipid 606, (E)-2-methylbut-2-enedioic acid] | – | – | can effectively orally deliver | – | – | – | can effectively orally deliver | can effectively orally deliver | – | – | – | – |
| CCCCCCCCCCCCCC=O [Lipid 594] | can effectively orally deliver | can effectively orally deliver | can effectively orally deliver | can effectively orally deliver | can effectively orally deliver | best delivery efficacy | can effectively orally deliver | can effectively orally deliver | can effectively orally deliver | can effectively orally deliver | can effectively orally deliver | – |
| CCCCCCCCCCCCCC(C)=O [Lipid 593, pentadecan-2-one] | can effectively orally deliver | can effectively orally deliver | can effectively orally deliver | can effectively orally deliver | can effectively orally deliver | best delivery efficacy | can effectively orally deliver | can effectively orally deliver | can effectively orally deliver | can effectively orally deliver | can effectively orally deliver | – |
| CCCCCCCCCCCCCCCCCCCC(=O)O [Lipid 624, icosanoic acid] | can effectively orally deliver | can effectively orally deliver | can effectively orally deliver | can effectively orally deliver | – | – | – | can effectively orally deliver | can effectively orally deliver | – | can effectively orally deliver | – |
| CCCCC/C=C\C/C=C\C/C=C\C/C=C\C/C=C\CCC(=O)O [Lipid 542, (4Z,7Z,10Z,13Z,16Z)-docosa-4,7,10,13,16-pentaenoic acid] | can effectively orally deliver | can effectively orally deliver | can effectively orally deliver | can effectively orally deliver | can effectively orally deliver | best delivery efficacy | can effectively orally deliver | can effectively orally deliver | can effectively orally deliver | can effectively orally deliver | can effectively orally deliver | – |
| CCCCCCCCCCCCCCCO [Lipid 609, pentadecan-1-ol] | can effectively orally deliver | can effectively orally deliver | can effectively orally deliver | can effectively orally deliver | – | – | – | can effectively orally deliver | – | can effectively orally deliver | can effectively orally deliver | – |
| CCCCCCCCCCCCCCCC(=O)NCCO [Lipid 578, N-(2-hydroxyethyl)hexadecanamide] | can effectively orally deliver | can effectively orally deliver | can effectively orally deliver | can effectively orally deliver | can effectively orally deliver | – | can effectively orally deliver | can effectively orally deliver | – | can effectively orally deliver | can effectively orally deliver | – |
| CCCCC/C=C\C/C=C\CCCCCCCCOC(=O)CCCCCCCCCCCCCCC [Lipid 804, [(9Z,12Z)-octadeca-9,12-dienyl] hexadecanoate] | can effectively orally deliver | can effectively orally deliver | can effectively orally deliver | can effectively orally deliver | can effectively orally deliver | – | can effectively orally deliver | can effectively orally deliver | can effectively orally deliver | can effectively orally deliver | can effectively orally deliver | can effectively orally deliver |
| O=C(O)CC(=O)C(=O)O [Lipid 623, 2-oxobutanedioic acid] | can effectively orally deliver | can effectively orally deliver | can effectively orally deliver | – | can effectively orally deliver | – | can effectively orally deliver | can effectively orally deliver | can effectively orally deliver | can effectively orally deliver | can effectively orally deliver | – |
